Test results: US6337417B1, “N-phenyltetrahydrophthalamic acid derivatives, methods of producing same, and herbicides containing same as effective components” (Central Glass Co., Ltd., priority 1994, dated 2002)

Tests used:
Format in all cases: in vivo
Set-up in all cases: key: 5: completely killed; 4: seriously injured; 3: considerably injured; 2: somewhat injured; 1: slightly injured; 0: not injured (normally grown)
[1] = tested on: cockspur (Panicum crus-galli); test: Experiment 2 foliage treatment: cockspur; conditions: 4 weeks after treatment
Description: (§1) Upon seedling stage (two- or three-leaved stage) of rice, cockspur (Panicum crus-galli), garden radish, aobiyu (slender amaranth, Amaranthus viridis) and mehishiba (henry crabgrass, Digitaria cliaris) which were grown on a cultivated soil put in pots of 1/15500 ares, a selected compound obtained in a manner analogous to Example 8, in suspended wettable powder, was sprayed to each plant. After that, the pots were kept in a glass chamber to allow each plant to grow, and after the lapse of 4 weeks from the treatment with the selected compounds the herbicidal effects were evaluated. The evaluation of the herbicidal effects was similarly conducted as to that of Experiment 1.

[2] = tested on: mehishiba (henry crabgrass, Digitaria cliaris); test: Experiment 2 foliage treatment: mehishiba; conditions: 4 weeks after treatment
Description: as §1

garden radish [3] = test: Experiment 2 foliage treatment: garden radish; conditions: 4 weeks after treatment
Description: as §1

rice [4] = test: Experiment 2 foliage treatment: rice; conditions: 4 weeks after treatment
Description: as §1

[5] = tested on: aobiyu (slender amaranth, Amaranthus viridis); test: Experiment 2 foliage treatment: aobiyu; conditions: 4 weeks after treatment
Description: as §1

[6] = tested on: aobiyu (slender amaranth, Amaranthus viridis); test: Experiment 5 foliage treatment: aobiyu; conditions: foliage spray of wettable powder suspension, evaluated 4 weeks after treatment
Description: as §1, with “11,” for “8,”, “as” for “as to”

paddy rice = test: Experiment 4 flooded soil treatment: injury to paddy rice; conditions: 4 weeks after treatment
Text: (§2) Paddy soil (clay loam) was put into a pot so as to have a surface area of 1/15500 ares. Uniformly mixed seeds of several kinds of weeds, viz., nobie (barnyardgrass, Echinochloa spp.), broad-leaved weeds, hotarui (bulrush, Scirpus juncoides) and tamagayatsuri (small-flowered umbrellaplant, Cyperus difformis), were sown in the surface layer of the soil in each pot, and then paddy rice seedlings at the two- or three-leaved stage were transplanted into each pot to a depth of 2 cm, and water was fed into each pot so as to provide a 3 cm deep water layer on the soil surface. After 3 days, in other words at the initial stage of germination of nobie (barnyardgrass, Echinochloa spp.), a predetermined amount of a selected compound obtained in a manner analogous to Example 11 in the form of diluted aqueous solution was dropped into the water layer in each pot. After that, the pots were kept in a glass chamber to allow the paddy rice and the weeds to grow, and after the lapse of 4 weeks from the treatment with the selected compounds, the herbicidal effects and the degree of injury to the paddy rice were evaluated. The evaluation of the herbicidal effects was similarly conducted as to that of Experiment 1.

[7] = tested on: mehishiba (henry crabgrass, Digitaria cliaris); test: Experiment 5 foliage treatment: mehishiba; conditions: foliage spray of wettable powder suspension, evaluated 4 weeks after treatment
Description: as §1, with “11,” for “8,”, “as” for “as to”

garden radish [8] = test: Experiment 5 foliage treatment: garden radish; conditions: foliage spray of wettable powder suspension, evaluated 4 weeks after treatment
Description: as §1, with “11,” for “8,”, “as” for “as to”

[9] = tested on: cockspur (Panicum crus-galli); test: Experiment 5 foliage treatment: cockspur; conditions: foliage spray of wettable powder suspension, evaluated 4 weeks after treatment
Description: as §1, with “11,” for “8,”, “as” for “as to”

[10] = tested on: tamagayatsuri (small-flowered umbrellaplant, Cyperus difformis); test: Experiment 4 flooded soil treatment: tamagayatsuri; conditions: 4 weeks after treatment
Text: as §2

[11] = tested on: nobie (barnyardgrass, Echinochloa spp.); test: Experiment 4 flooded soil treatment: nobie; conditions: 4 weeks after treatment
Text: as §2

broad-leaved weeds = test: Experiment 4 flooded soil treatment: broad-leaved weeds; conditions: 4 weeks after treatment
Text: as §2

rice [12] = test: Experiment 5 foliage treatment: rice; conditions: foliage spray of wettable powder suspension, evaluated 4 weeks after treatment
Description: as §1, with “11,” for “8,”, “as” for “as to”

[13] = tested on: hotarui (bulrush, Scirpus juncoides); test: Experiment 4 flooded soil treatment: hotarui; conditions: 4 weeks after treatment
Text: as §2

Row | Structure (SMILES) | Herbicidal Effect aobiyu ([6]; 40 g/10a) | Herbicidal Effect aobiyu ([6]; 80 g/10a) | Injury of Paddy (paddy rice; 3.13 g/10a) | Injury of Paddy (paddy rice; 6.25 g/10a) | Herbicidal Effect mehishiba ([7]; 40 g/10a) | Herbicidal Effect mehishiba ([7]; 80 g/10a) | Herbicidal Effect garden radish (garden radish [8]; 40 g/10a) | Herbicidal Effect garden radish (garden radish [8]; 80 g/10a) | Herbicidal Effect cockspur ([9]; 40 g/10a) | Herbicidal Effect cockspur ([9]; 80 g/10a) | Herbicidal Effect tamagayatsuri ([10]; 3.13 g/10a) | Herbicidal Effect tamagayatsuri ([10]; 6.25 g/10a) | Herbicidal Effect nobie ([11]; 3.13 g/10a) | Herbicidal Effect nobie ([11]; 6.25 g/10a) | Herbicidal Effect broad-leaved weed (broad-leaved weeds; 3.13 g/10a) | Herbicidal Effect broad-leaved weed (broad-leaved weeds; 6.25 g/10a) | Herbicidal Effect rice (rice [12]; 40 g/10a) | Herbicidal Effect rice (rice [12]; 80 g/10a) | Herbicidal Effect hotarui ([13]; 3.13 g/10a) | Herbicidal Effect hotarui ([13]; 6.25 g/10a) | also measured
1 | CCCCOC(=O)C1=C(C(=O)N(C(C)=O)c2cc(SCC(=O)OCC)c(Cl)cc2F)CCCC1 [compound 39] | – | – | – | – | – | – | – | – | – | – | – | – | – | – | – | – | – | – | – | – | Herbicidal Effect cockspur ([1]; 40 g/10a): 1; Herbicidal Effect cockspur ([1]; 80 g/10a): 1; Herbicidal Effect mehishiba ([2]; 40 g/10a): 1; Herbicidal Effect mehishiba ([2]; 80 g/10a): 1; Herbicidal Effect garden radish (garden radish [3]; 40 g/10a): 5; Herbicidal Effect garden radish (garden radish [3]; 80 g/10a): 5; Herbicidal Effect rice (rice [4]; 40 g/10a): 1; Herbicidal Effect rice (rice [4]; 80 g/10a): 1; Herbicidal Effect aobiyu ([5]; 40 g/10a): 5; Herbicidal Effect aobiyu ([5]; 80 g/10a): 5
2 | COC(=O)CSc1cc(N(C(=O)C2=C(C(=O)OC)CCCC2)C(=O)c2cccnc2)c(F)cc1Cl [compound 63] | 5 | 5 | 0 | 0 | 1 | 1 | 4.5 | 4.5 | 1 | 1 | 4 | 5 | 5 | 5 | 5 | 5 | 1 | 1 | 4 | 4 | –
3 | COCCOC(=O)C1=C(C(=O)N(C(=O)c2cccnc2)c2cc(C(=O)OC)c(Cl)cc2F)CCCC1 [compound 65] | 5 | 5 | 0 | 0 | 1 | 1 | 5 | 5 | 1 | 1 | 4 | 4 | 5 | 5 | 5 | 5 | 1 | 1 | 4 | 4 | –
4 | CCCCOC(=O)c1cc(N(C(=O)C2=C(C(=O)OC)CCCC2)C(=O)c2cccnc2)c(F)cc1Cl [compound 66] | 5 | 5 | 0 | 0 | 1 | 2 | 4.5 | 5 | 1 | 1 | 4 | 4 | 5 | 5 | 5 | 5 | 1 | 1 | 4 | 4 | –
5 | C#CC(C)Oc1cc(N(C(=O)C2=C(C(=O)OC(C)C)CCCC2)C(=O)c2ccc(Cl)nc2)c(F)cc1Cl (stereo not drawn) [compound 68] | 5 | 5 | 0 | 0.5 | 1 | 1 | 5 | 5 | 1 | 1 | 5 | 5 | 5 | 5 | 5 | 5 | 1 | 1 | 4 | 4.5 | –
6 | C#CC(C)Oc1cc(N(C(=O)C2=C(C(=O)OCCOC)CCCC2)C(=O)c2ccc(Cl)nc2)c(F)cc1Cl (stereo not drawn) [compound 69] | 5 | 5 | 0.5 | 0.5 | 2 | 2 | 4.5 | 5 | 1 | 1 | 5 | 5 | 5 | 5 | 5 | 5 | 1 | 1 | 4 | 4.5 | –
7 | C#CC(C)Oc1cc(N(C(=O)C2=C(C(=O)OC)CCCC2)C(=O)c2cccnc2)c(Cl)cc1Cl (stereo not drawn) [compound 70] | 5 | 5 | 0 | 0 | 2 | 2 | 4 | 5 | 1 | 1 | 5 | 5 | 5 | 5 | 5 | 5 | 1 | 1 | 4 | 4 | –
8 | C#CC(C)Oc1cc(N(C(=O)C2=C(C(=O)OCCOC)CCCC2)C(=O)c2cccnc2)c(Cl)cc1Cl (stereo not drawn) [compound 71] | 5 | 5 | 0 | 0 | 2 | 2 | 4 | 5 | 1 | 1 | 5 | 5 | 5 | 5 | 5 | 5 | 1 | 1 | 4 | 4 | –
